Test results published in ChEMBL document CHEMBL3046631, “Synthesis and Structure-Activity Relationships of Dinotefuran Derivatives: Modification in the Nitroguanidine Part” (2004).

Columns and labels:
Nephotettix cincticeps = test: Insecticidal activity against 1 to 3 day-old adult Nephotettix cincticeps (green rice leafhopper) infested in compound-treated rice seedlings assessed as mortality measured after 3 days; type: functional
Laodelphax striatellus = test: Insecticidal activity against 1 to 3 day-old adult Laodelphax striatella (small brown planthopper) infested compound-treated rice seedlings assessed as mortality measured after 3 days; type: functional

| SMILES | LC70 (Nephotettix cincticeps) [ppm] | LC70 (Laodelphax striatellus) [ppm] |
| --- | --- | --- |
| CC(=O)N(C)/C(=N\[N+](=O)[O-])N(CC1CCOC1)C(C)=O (racemic) | 0.1 | 0.1 |
| CS/C(=C\[N+](=O)[O-])NCC1CCOC1 (racemic) | >1000 | >1000 |
| O=[N+]([O-])/C=C1\NCCCCN1CC1CCOC1 (racemic) | 1 | 10 |
| CCCN(CC1CCOC1)/C(=C/[N+](=O)[O-])NC (racemic) | 10 | 10 |
| CN1CCCN(CC2CCOC2)/C1=N/[N+](=O)[O-] (racemic) | 10 | 100 |
| COC(=O)N(CC1CCOC1)/C(=N/[N+](=O)[O-])N(C)C(C)=O (racemic) | 0.1 | 1 |
| CN(C)/C(=C\[N+](=O)[O-])N(C)CC1CCOC1 (racemic) | 10 | 1 |
| CS/C(=N\[N+](=O)[O-])NCC1CCOC1 (centres undefined) | 10 | 10 |
| CCN(CC1CCOC1)/C(=N/[N+](=O)[O-])NC (racemic) | 10 | 10 |
| O=[N+]([O-])/C=C1\NCCN1CC1CCOC1 (racemic) | 0.1 | 10 |
| CC(=O)N1CCCN(CC2CCOC2)/C1=N\[N+](=O)[O-] (racemic) | 0.1 | 10 |
| O=[N+]([O-])/C=C1\NCCCN1CC1CCOC1 (racemic) | 0.1 | 1 |
| CS/C(=C\[N+](=O)[O-])N(C)CC1CCOC1 (racemic) | >1000 | >1000 |
| CN/C(=N/CC1CCOC1)N[N+](=O)[O-] (centres undefined) [DINOTEFURAN] | 0.1 | 0.1 |
| CN/C(=C\[N+](=O)[O-])NCC1CCOC1 (racemic) | 0.1 | 0.1 |
| COC(=O)N/C(=N\[N+](=O)[O-])NCC1CCOC1 (racemic) | 10 | >1000 |
| CC(=O)N/C(=N\[N+](=O)[O-])NCC1CCOC1 (racemic) | >1000 | >1000 |
| O=C(N/C(=N\[N+](=O)[O-])NCC1CCOC1)c1ccccc1 (racemic) | >1000 | >1000 |
| CCN/C(=C\[N+](=O)[O-])NCC1CCOC1 (racemic) | 10 | 10 |
| COC(=O)N(CC1CCOC1)/C(=N/[N+](=O)[O-])N(C)Cc1ccccc1 (racemic) | 0.1 | 1 |
| C#CCN/C(=C\[N+](=O)[O-])NCC1CCOC1 (racemic) | >1000 | >1000 |

| SMILES | LC70 (Nephotettix cincticeps) [ppm] | LC70 (Laodelphax striatellus) [ppm] |
| --- | --- | --- |
| CCN(C)/C(=N\[N+](=O)[O-])NCC1CCOC1 (racemic) | 10 | 10 |
| CCN/C(=N\[N+](=O)[O-])NCC1CCOC1 (racemic) | 10 | 100 |
| CCCN/C(=C\[N+](=O)[O-])NCC1CCOC1 (racemic) | 100 | 100 |
| O=[N+]([O-])/N=C1\NCCN1CC1CCOC1 (racemic) | 1 | 10 |
| CN(C)/C(=N\[N+](=O)[O-])NCC1CCOC1 (racemic) | 0.1 | 1 |
| CN1CCCN(CC2CCOC2)/C1=C/[N+](=O)[O-] (racemic) | 10 | 10 |
| CS/C(=N\[N+](=O)[O-])N(C)CC1CCOC1 (racemic) | >1000 | >1000 |
| CN/C(=N\[N+](=O)[O-])N(C)CC1CCOC1 (racemic) | 1 | 1 |
| O=[N+]([O-])/N=C(\NCc1ccccc1)NCC1CCOC1 (racemic) | >1000 | >1000 |
| O=C(c1ccccc1)N1CCCN(CC2CCOC2)/C1=N\[N+](=O)[O-] (racemic) | 0.1 | 10 |
| O=[N+]([O-])/N=C1\NCCCCN1CC1CCOC1 (racemic) | 10 | 100 |
| CN(C)/C(=C\[N+](=O)[O-])NCC1CCOC1 (racemic) | 1 | 0.1 |
| O=[N+]([O-])/N=C1\NCCCN1CC1CCOC1 (racemic) | 0.1 | 1 |
| COC(=O)N(C)/C(=N\[N+](=O)[O-])N(CC1CCOC1)C(=O)OC (racemic) | 0.1 | 1 |
| CN(C(=O)c1ccccc1)/C(=N\[N+](=O)[O-])N(CC1CCOC1)C(=O)c1ccccc1 (racemic) | 0.1 | 1 |
| CCN(C(C)=O)/C(=N\[N+](=O)[O-])N(CC1CCOC1)C(C)=O (racemic) | 10 | 10 |
| N/C(=N\[N+](=O)[O-])NCC1CCOC1 (racemic) | 100 | >1000 |
| CCN(CC1CCOC1)/C(=C/[N+](=O)[O-])NC (racemic) | 10 | 1 |
| CN(C)/C(=N\[N+](=O)[O-])N(C)CC1CCOC1 (racemic) | 10 | 10 |
| CN(Cc1ccccc1)/C(=N\[N+](=O)[O-])N(Cc1ccccc1)CC1CCOC1 (racemic) | 10 | 10 |
| CN/C(=C\[N+](=O)[O-])N(C)CC1CCOC1 (racemic) | 1 | 1 |
